What all share (type): cell-based
One assay has as its target T1, AR (Homo sapiens, UniProt P10275, T878A).
T1 construct: the amount of soluble AR protein in heat shocked C4-2 cell lysates; endogenous in cells; host or cells: C4-2 castration resistant prostate cancer cells
T1 sequence (P10275 1-920 T878A): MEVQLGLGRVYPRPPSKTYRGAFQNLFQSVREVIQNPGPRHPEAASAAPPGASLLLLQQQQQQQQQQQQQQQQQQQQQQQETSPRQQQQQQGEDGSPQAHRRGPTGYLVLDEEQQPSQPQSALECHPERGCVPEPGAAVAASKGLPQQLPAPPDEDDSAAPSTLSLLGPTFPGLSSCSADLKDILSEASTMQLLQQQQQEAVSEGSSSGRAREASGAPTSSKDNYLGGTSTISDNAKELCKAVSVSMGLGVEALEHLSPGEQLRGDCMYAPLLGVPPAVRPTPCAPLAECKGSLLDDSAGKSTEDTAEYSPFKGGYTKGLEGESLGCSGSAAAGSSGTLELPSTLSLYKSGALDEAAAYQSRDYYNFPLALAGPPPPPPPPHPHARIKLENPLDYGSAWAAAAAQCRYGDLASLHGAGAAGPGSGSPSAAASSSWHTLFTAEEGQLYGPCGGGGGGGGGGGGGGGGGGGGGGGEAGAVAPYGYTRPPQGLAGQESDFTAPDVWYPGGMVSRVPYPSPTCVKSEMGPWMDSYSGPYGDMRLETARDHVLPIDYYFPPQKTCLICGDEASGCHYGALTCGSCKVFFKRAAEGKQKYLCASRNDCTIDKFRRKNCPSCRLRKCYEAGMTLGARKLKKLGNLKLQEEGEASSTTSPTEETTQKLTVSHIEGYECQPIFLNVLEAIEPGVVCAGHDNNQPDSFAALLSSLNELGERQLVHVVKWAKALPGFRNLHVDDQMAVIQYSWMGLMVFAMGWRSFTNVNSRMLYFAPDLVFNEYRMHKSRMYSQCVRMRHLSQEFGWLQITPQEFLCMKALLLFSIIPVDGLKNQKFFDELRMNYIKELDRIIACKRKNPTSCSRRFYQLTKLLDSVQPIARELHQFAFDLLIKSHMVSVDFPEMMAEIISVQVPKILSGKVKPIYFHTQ
The assay is described as follows: Western blotting cellular thermal shift assay for AR in C4-2 cells. Conditions: for AR thermal stability at 46° C., compound alone (western blot): hits 20 μM for 1 h at 37° C.; for DHT-enhanced AR thermal stability at 46° C. (western blot): hits 20 μM, 10 nM DHT. The protocol:
(§1) Western Blotting Cellular Thermal Shift Assays for TIF2 and AR Target Engagement in C4-2 Cells: C4-2 cells were harvested by trypsinization, washed 1× by centrifugation at 270×g for 5 min and resuspension in PBS, counted, centrifugated at 270× g for 5 min and resuspended at 7×10^6 cells per mL in Opti-MEM medium (Gibco, Gaithersburg, MD). 50 μL of C4-2 cell suspension (3.5×10^5 cells) were then transferred to PCR tubes that were placed in a T-100 thermocycler (BioRad, Hercules, CA) and a 2° C. interval temperature step gradient from 37° C. to 53° C. was applied. Cells were maintained at each step of the temperature gradient for 5 min and then tubes were withdrawn and placed on ice. 50 μL of cell lysis buffer, 500 mM NaCl, 1% NP-40, 1× protease inhibitor cocktail in PBS were added to the heat shocked cell suspensions in PCR tubes and placed on ice for an additional 30 min. Cell lysates were then centrifuged at 14,000 RPM (18,800×g) at 4° C. for 15 min and supernatants were transferred to new tubes and protein concentrations were determined in a bicinchoninic acid (BCA) assay. 45 μL of cell lysis supernatants were mixed with 15 μL of 5×SDS-PAGE sample buffer and placed in a heat block at 100° C. for 5 min. The protein constituents of heat shocked C4-2 cell lysis supernatants were separated by SDS-PAGE on 8% separating gels, transferred to nitrocellulose membranes that were blocked for 1 h at room temperature in 5% non-fat milk in TBST, and then probed overnight at 4° C. with a 1:1000 dilution of either rabbit anti-AR (Cell Signaling, Danvers, MA) or rabbit anti-TIF2 (Bethyl Laboratories, Waltham, MA) primary antibodies in TBST containing 5% non-fat milk. Membranes were then washed 3× in TBST buffer for 10 min, then incubated with a 1:10,000 dilution of the goat anti-rabbit IgG HRP conjugated secondary antibody (Invitrogen, Carlsbad, CA) in TBST containing 5% non-fat milk for 1 h at room temperature. Western blots were then washed 3× in TBST buffer and developed with Pierce ECL western blotting substrate. Images of ECL western blots were acquired on an iBright™ 1500 imaging system and quantified using the iBright™ image analysis software.

For assay [1], the system named is UBE2C promoter-driven transcription in PC3-AR-V7-GFP cells. The assay is described as follows: UBE2C promoter driven luciferase reporter assay in PC3-AR-V7-GFP cells. The procedure: UBE2C Promoter Driven Luciferase Reporter Assay in PC3-AR-V7-GFP Cells: The pGL4.28-UBE2C 20bpX3 luciferase reporter plasmid (Xu et al., Cancer Res 2015, 75:3663-71) was provided by Dr. Yan Dong from Tulane University. FuGENE® HD transfection agent and the UBE2C-Luc plasmid (10 ng/well) were combined at a 3:1 (μL:μg) ratio, in Opti-MEM™ medium and incubated for 25 min at RT before being added to PC3-AR-V7-GFP cells that were suspended in RPMI 1640 (Gibco) media containing 1% L-glutamine (Invitrogen), and 10% fetal bovine serum (Gemini Bio-products). Bulk transfected PC3-AR-V7-GFP cells were seeded into white opaque 384-well assay plates (Greiner Bio-one, #781080) at a density of 3,000 cell per well in a volume of […] and incubated at 5% CO2, 37° C., and 95% humidity for 24 h. After 24 h, 10 μL of compounds were transferred to assay wells and the plates were returned to the incubator for an additional 24 h before 25 μL of BrightGlo® luciferase reagent (Promega) was added to the wells and the RLU's were captured on a SpectraMax® M5e plate reader (Molecular Devices LLC) as described previously (Ibid.).
On the technique in general: In a reporter assay the amount or activity of a reporter protein is the signal.

For a further assay, the target named is T2, TIF2 (Homo sapiens, UniProt Q15596).
T2 construct: endogenous in cells; host or cells: C4-2 castration resistant prostate cancer cells
The assay is described as follows: Western blotting cellular thermal shift assay for TIF2 in C4-2 cells. The following applies: 20 μM, TIF2 western blots. The procedure:
as §1
(A western blot detects proteins with antibodies after separation by electrophoresis.)

The mark [2] stands for this setting: PC3-AR-V7-GFP cells, constitutive, read-out: Inhibition AR-V7 UBE2C-reporter IC50.
Where [3] appears, read: 24 h, 24 h exposure, read-out: IC50 in UBE2C-Luc AR-V7 reporter assay (potency range in words).

Entries after “also recorded” stand apart in the source; their conditions may differ. Like-named read-outs stand apart in the source and are kept apart here.

T2 sequence (Q15596 whole entry): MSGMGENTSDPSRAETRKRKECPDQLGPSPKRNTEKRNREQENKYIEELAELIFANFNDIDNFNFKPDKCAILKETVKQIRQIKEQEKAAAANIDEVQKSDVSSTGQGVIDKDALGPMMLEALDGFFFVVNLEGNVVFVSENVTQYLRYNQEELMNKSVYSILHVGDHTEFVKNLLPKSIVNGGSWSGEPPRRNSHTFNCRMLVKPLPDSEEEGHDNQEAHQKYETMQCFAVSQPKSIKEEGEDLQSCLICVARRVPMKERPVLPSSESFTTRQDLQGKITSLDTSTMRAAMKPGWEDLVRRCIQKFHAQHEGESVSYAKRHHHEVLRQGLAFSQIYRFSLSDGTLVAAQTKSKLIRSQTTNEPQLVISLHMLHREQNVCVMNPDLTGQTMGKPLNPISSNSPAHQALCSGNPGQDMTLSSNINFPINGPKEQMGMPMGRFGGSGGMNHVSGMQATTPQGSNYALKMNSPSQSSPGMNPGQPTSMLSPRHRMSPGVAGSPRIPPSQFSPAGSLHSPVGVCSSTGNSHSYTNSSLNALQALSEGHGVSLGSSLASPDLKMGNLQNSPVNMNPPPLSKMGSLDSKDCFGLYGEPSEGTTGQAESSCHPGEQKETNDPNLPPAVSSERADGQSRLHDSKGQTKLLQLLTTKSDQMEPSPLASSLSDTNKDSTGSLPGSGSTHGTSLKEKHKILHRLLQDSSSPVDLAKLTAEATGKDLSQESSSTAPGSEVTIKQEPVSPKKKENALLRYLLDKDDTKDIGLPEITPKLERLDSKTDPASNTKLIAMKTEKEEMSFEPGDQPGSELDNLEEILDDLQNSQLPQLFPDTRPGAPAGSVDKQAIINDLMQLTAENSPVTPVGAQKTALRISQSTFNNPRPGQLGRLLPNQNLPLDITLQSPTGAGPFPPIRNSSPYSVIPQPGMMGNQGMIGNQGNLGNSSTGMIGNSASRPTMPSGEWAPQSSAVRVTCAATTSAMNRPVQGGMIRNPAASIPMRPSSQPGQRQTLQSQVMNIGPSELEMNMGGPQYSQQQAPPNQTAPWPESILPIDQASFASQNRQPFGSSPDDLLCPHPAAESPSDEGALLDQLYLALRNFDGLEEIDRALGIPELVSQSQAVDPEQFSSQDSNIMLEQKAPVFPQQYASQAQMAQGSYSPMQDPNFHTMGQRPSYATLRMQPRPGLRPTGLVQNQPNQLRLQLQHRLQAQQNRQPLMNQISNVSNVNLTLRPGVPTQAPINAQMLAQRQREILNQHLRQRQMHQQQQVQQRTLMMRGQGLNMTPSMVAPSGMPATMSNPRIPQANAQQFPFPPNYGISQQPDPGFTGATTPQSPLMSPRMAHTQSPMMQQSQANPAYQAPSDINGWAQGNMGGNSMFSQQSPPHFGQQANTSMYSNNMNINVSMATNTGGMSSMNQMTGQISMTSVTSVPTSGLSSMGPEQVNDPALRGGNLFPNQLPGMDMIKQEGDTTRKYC

One may read the IC50 as the midpoint of a concentration-inhibition curve. On to `Cc1ccccc1-c1cc(O)c2c(c1)CN(c1nc(C(N)=O)cs1)CCO2` [Compound S1-1], for which, on AR, the “AR thermal stability at 46° C., compound alone (western blot)” value is “did not stabilize AR” and the “DHT-enhanced AR thermal stability at 46° C. (western blot)” value (from here on “DHT-enhanced AR thermal stability”) is “only partially blocked DHT-enhanced AR stabilization; also recorded: inhibition of DHT-enhanced AR thermal stability”. Further, the IC50 in assay [1] (setting [2]) is less than 35 µM. The “TIF2 thermal stability at 46° C.” value on TIF2 was “did not enhance TIF2 thermal stability; also recorded: do not enhance TIF2 thermal stability”.
`Cc1nc(N)cc(N2CCOc3c(O)cc(-c4ccccc4C)cc3C2)n1` [Compound S1-2]: in assay [1] (setting [2]), the half-maximal inhibitory concentration (IC50) was found to be 8.3 µM.
`Cc1nsc(NC(=O)N2CCC(Sc3ccccc3C)CC2)n1` [Compound S2-6]: on AR, the “AR thermal stability at 46° C., compound alone (western blot)” value is “did not stabilize AR” and the “DHT-enhanced AR thermal stability” value is listed as “blocked DHT-enhanced AR thermal stabilization below DMSO baseline levels; also recorded: inhibition of DHT-enhanced AR thermal stability”. Also, in assay [1] (setting [2]), the IC50 was roughly 15 µM. On TIF2, the “TIF2 thermal stability at 46° C.” value is “did not enhance TIF2 thermal stability; also recorded: do not enhance TIF2 thermal stability”. Besides, on TIF2 (listed as 6), the “TIF2 thermal stability at 46° C.” value is reported as “did not enhance TIF2 stability”.
Regarding `Cc1c(-c2ccccc2F)[nH]c2ccc(CNC(=O)CCc3cn[nH]c3)cc12` [Compound S3-11], at AR, the “AR thermal stability at 46° C., compound alone (western blot)” value is recorded as “did not stabilize AR” and the “DHT-enhanced AR thermal stability” value is given as “only partially blocked DHT-enhanced AR stabilization; also recorded: inhibition of DHT-enhanced AR thermal stability”. Besides, the IC50 in assay [1] (setting [3]) is 10 to 100 µM. The IC50 in assay [1] (setting [2]) came out at 12 µM. In addition, the “TIF2 thermal stability at 46° C.” value on TIF2 is on record as “did not enhance TIF2 thermal stability; also recorded: do not enhance TIF2 thermal stability”.
For `Cc1c(-c2ccccc2F)[nH]c2ccc(CNC(=O)CCc3cnccn3)cc12` [Compound S3-12], in assay [1] (setting [3]), the IC50 lay within 10 to 100 µM.
For the molecule `CC(=O)NCCC(=O)NCc1ccc2[nH]c(-c3ccccc3F)c(C)c2c1` [Compound S3-13], the IC50 in assay [1] (setting [2]) is greater than 100 µM.
Take `Cc1c(-c2ccccc2F)[nH]c2ccc(CNC(=O)c3ccc(CO)o3)cc12` [Compound S3-14]: the IC50 in assay [1] (setting [3]) lay in the range of 10 to 100 µM.
Still for that read-out and setting: for `Cc1c(-c2ccc(F)cc2)[nH]c2ccc(CNC(=O)c3ccc(CO)o3)cc12` [Compound S3-15] the value was 10 to 100 µM.
Turning to `Cc1cccc2c(-c3ccc(O)c(F)c3)c[nH]c12` [Compound S3-17], the IC50 in assay [1] (setting [3]) fell in the range of 10 to 100 µM.
For `CNC(=O)c1ccc(-c2c[nH]c3c(C)cccc23)cc1` [Compound S3-21], the IC50 in assay [1] (setting [2]) was greater than 100 µM.

Values taken from patent US20260083751A1, “ALLOSTERIC MODULATORS OF ANDROGEN RECEPTOR COACTIVATOR RECRUITMENT FOR CRPC THERAPY” (University of Pittsburgh – Of the Commonwealth System of …, priority 2022, published 2026).
